Laboratory results published in patent publication US20260138978A1, “POSITIVE ALLOSTERIC MODULATORS OF THE MUSCARINIC ACETYLCHOLINE RECEPTOR M1” (Vanderbilt University, priority 2022, published 2026).

Tests used:
[1] = biological target: T1, human mAChRM1 (Homo sapiens, UniProt P11229); assay: mAChR M1 cell-based functional assay (calcium mobilization), positive allosteric modulator activity: increase in the EC20 acetylcholine response; settings: for Emax: PAM mode; for EC50: read-out: PAM Activity Human M1 EC50
T1 construct: host or cells: CHO-K1
T1 sequence (P11229 1-460): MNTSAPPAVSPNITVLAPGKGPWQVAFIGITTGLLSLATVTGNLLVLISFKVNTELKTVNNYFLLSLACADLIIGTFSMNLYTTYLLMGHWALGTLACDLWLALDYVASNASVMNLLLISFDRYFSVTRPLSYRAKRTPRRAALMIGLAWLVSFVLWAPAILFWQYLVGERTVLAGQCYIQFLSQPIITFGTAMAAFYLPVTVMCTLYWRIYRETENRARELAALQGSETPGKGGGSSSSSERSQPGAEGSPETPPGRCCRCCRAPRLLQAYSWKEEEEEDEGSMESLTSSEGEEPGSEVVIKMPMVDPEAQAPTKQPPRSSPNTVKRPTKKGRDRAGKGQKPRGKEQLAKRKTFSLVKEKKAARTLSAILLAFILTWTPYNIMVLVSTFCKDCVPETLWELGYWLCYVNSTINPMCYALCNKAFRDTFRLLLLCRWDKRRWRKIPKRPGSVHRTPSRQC
In short: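 CHO-K1 cells stably expressing human M1, loaded with Fluo-4 AM; calcium flux recorded on FDSS at 1 Hz over 300 s following compound addition. PAM activity is the concentration-dependent increase of an EC20 acetylcholine response; EC50 and Emax from four-parameter logistic fits of 11-point, 1:3 concentration series.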

[2] = biological target: T1, human mAChRM1; assay: mAChR M1 cell-based functional assay (calcium mobilization), agonist activity upon compound addition, Emax relative to acetylcholine maximum; settings: for EC50 / Agonist Activity Human M1 EC50: calcium mobilization upon compound addition; for Emax: relative to the maximum for acetylcholine
In short: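 CHO-K1 cells stably expressing human M1 were loaded with Fluo-4 AM for 50 min at 37 °C. Compound was added 4 s into a 300 s FDSS read at 1 Hz, over 11-point 1:3 dilution curves. Agonism was taken as a concentration-dependent rise in calcium fluorescence ratio, with Emax expressed relative to the acetylcholine maximum from four-parameter logistic fits.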

[3] = increase in the EC20 acetylcholine response

Emax [1] | EC50 [1, 3] | EC50 [2] | Emax [2] | Agonist Activity Human M1 EC50 [2] | PAM Activity Human M1 EC50 [1, 3] | Structure (SMILES)
71% | 0.278 µM | ≥ 10 µM | 23% |  |  | Cc1cc(-c2ccc(C(C)(C)O)c3nn(C)cc23)ccc1CN1Cc2ncccc2C1=O [Compound 58, 6-(4-(7-(2-hydroxypropan-2-yl)-2-methyl-2H-indazol-4-yl)-2-methylbenzyl)-6,7-dihydro-5H-pyrrolo[3,4-b]pyridin-5-one]
35% | ≥ 10 µM |  |  | inactive |  | [2H]C1([2H])c2ncccc2C(=O)N1Cc1ccc(-c2ccc(C(C)(C)O)c3nn(C)cc23)cc1C(C)C [Compound 153, 6-(4-(7-(2-hydroxypropan-2-yl)-2-methyl-2H-indazol-4-yl)-2-isopropylbenzyl)-6,7-dihydro-5H-pyrrolo[3,4-b]pyridin-5-one-7,7-d2]
80% | 1.03 µM | ≥ 10 µM | 23% |  |  | Cn1cc2c(-c3cc(F)c(CN4Cc5cccnc5C4=O)c(N4CCC4)c3)ccc(C(C)(C)O)c2n1 [Compound 135, 6-(2-(azetidin-1-yl)-6-fluoro-4-(7-(2-hydroxypropan-2-yl)-2-methyl-2H-indazol-4-yl)benzyl)-5,6-dihydro-7H-pyrrolo[3,4-b]pyridin-7-one]
85% | 0.155 µM |  |  | inactive |  | Cn1cc2c(-c3cc(F)c(CN4Cc5ccccc5C4=O)c(F)c3)ccc(C(C)(C)O)c2n1 [Compound 172, 2-(2,6-difluoro-4-(7-(2-hydroxypropan-2-yl)-2-methyl-2H-indazol-4-yl)benzyl)isoindolin-1-one]
80% | 0.296 µM |  |  | inactive |  | Cn1cc2c(-c3ccc(CN4Cc5cccc(F)c5C4=O)c(F)c3)ccc(C(C)(C)O)c2n1 [Compound 160, 7-fluoro-2-(2-fluoro-4-(7-(2-hydroxypropan-2-yl)-2-methyl-2H-indazol-4-yl)benzyl)isoindolin-1-one]
85% | 0.359 µM |  |  | inactive |  | CC[C@@](C)(O)c1ccc(-c2cc(F)c(CN3Cc4ncccc4C3=O)c(F)c2)c2cn(C)nc12 [Compound 102, (R)-6-(2,6-difluoro-4-(7-(2-hydroxybutan-2-yl)-2-methyl-2H-indazol-4-yl)benzyl)-6,7-dihydro-5H-pyrrolo[3,4-b]pyridin-5-one]
64% | 0.445 µM |  |  | inactive |  | Cn1cc2c(-c3ccc(CN4Cc5ncccc5C4=O)c(F)c3F)ccc(C(C)(C)O)c2n1 [Compound 63, 6-(2,3-difluoro-4-(7-(2-hydroxypropan-2-yl)-2-methyl-2H-indazol-4-yl)benzyl)-6,7-dihydro-5H-pyrrolo[3,4-b]pyridin-5-one]
87% | 0.064 µM |  |  | inactive |  | Cn1cc2c(-c3cc(F)c(CN4Cc5cccc(F)c5C4=O)c(F)c3)ccc(C(C)(C)O)c2n1 [Compound 154, 2-(2,6-difluoro-4-(7-(2-hydroxypropan-2-yl)-2-methyl-2H-indazol-4-yl)benzyl)-7-fluoroisoindolin-1-one]
59% | 4.31 µM |  |  | inactive |  | CC(C)(O)c1ccc(-c2cc(F)c(CN3Cc4ncccc4C3=O)c(F)c2)c2cccnc12 [Compound 38, 6-(2,6-difluoro-4-(8-(2-hydroxypropan-2-yl)quinolin-5-yl)benzyl)-6,7-dihydro-5H-pyrrolo[3,4-b]pyridin-5-one]
83% | 0.061 µM | 3.73 µM | 54% |  |  | COCCOc1cc(-c2ccc(C(C)(C)O)c3nn(C)cc23)cc(F)c1CN1Cc2cccnc2C1=O [Compound 126, 6-(2-fluoro-4-(7-(2-hydroxypropan-2-yl)-2-methyl-2H-indazol-4-yl)-6-(2-methoxyethoxy)benzyl)-5,6-dihydro-7H-pyrrolo[3,4-b]pyridin-7-one]
67% | 2.72 µM |  |  | inactive |  | CCC(O)(CC)c1ccc(-c2cc(C)c(CN3Cc4ncccc4C3=O)c(F)c2)c2cn(C)nc12 [Compound 55, 6-(2-fluoro-4-(7-(3-hydroxypentan-3-yl)-2-methyl-2H-indazol-4-yl)-6-methylbenzyl)-6,7-dihydro-5H-pyrrolo[3,4-b]pyridin-5-one]

More lines, now with the values behind:

Structure (SMILES) | Emax [1] | EC50 [1, 3] | EC50 [2] | Emax [2] | Agonist Activity Human M1 EC50 [2] | PAM Activity Human M1 EC50 [1, 3]
CC(C)(O)c1cc(F)c(-c2cc(F)c(CN3Cc4ncccc4C3=O)c(F)c2)cc1F [Compound 48, 6-((2′,3,5,5′-tetrafluoro-4′-(2-hydroxypropan-2-yl)-[1,1′-biphenyl]-4-yl)methyl)-6,7-dihydro-5H-pyrrolo[3,4-b]pyridin-5-one] |  |  |  |  | inactive | inactive
CC(C)(O)c1ccc(-c2cc(F)c(CN3Cc4ncccc4C3=O)c(C(F)(F)F)c2)cc1 [Compound 44, 6-((3-fluoro-4′-(2-hydroxypropan-2-yl)-5-(trifluoromethyl)-[1,1′-biphenyl]-4-yl)methyl)-6,7-dihydro-5H-pyrrolo[3,4-b]pyridin-5-one] | 61% | 5.68 µM |  |  | inactive | 
CC(C)(O)c1ccc(-c2cc(F)c(CN3Cc4ncccc4C3=O)c(F)c2)cc1 [Compound 5, 6-((3,5-difluoro-4′-(2-hydroxypropan-2-yl)-[1,1′-biphenyl]-4-yl)methyl)-6,7-dihydro-5H-pyrrolo[3,4-b]pyridin-5-one] | 79% | 1.46 µM |  |  | inactive | 
Cn1cc(-c2cc(F)c(CN3Cc4ncccc4C3=O)c(F)c2)c2ccc(C(C)(C)O)cc21 [Compound 40, 6-(2,6-difluoro-4-(6-(2-hydroxypropan-2-yl)-1-methyl-1H-indol-3-yl)benzyl)-6,7-dihydro-5H-pyrrolo[3,4-b]pyridin-5-one] | 73% | 2.19 µM |  |  | inactive | 
Cc1cc(-c2cc(C(C)(C)O)cc3nn[nH]c23)cc(F)c1CN1Cc2ncccc2C1=O [Compound 74, 6-(2-fluoro-4-(5-(2-hydroxypropan-2-yl)-1H-benzo[d][1,2,3]triazol-7-yl)-6-methylbenzyl)-6,7-dihydro-5H-pyrrolo[3,4-b]pyridin-5-one] | 52% | ≥ 10 µM |  |  | inactive | 
Cn1cc2c(-c3cc(F)c(CN4Cc5ncccc5C4=O)c(F)c3)ccc(C3(O)COC3)c2n1 [Compound 89, 6-(2,6-Difluoro-4-(7-(3-hydroxyoxetan-3-yl)-2-methyl-2H-indazol-4-yl)benzyl)-6,7-dihydro-5H-pyrrolo[3,4-b]pyridin-5-one] | 82% | 0.254 µM | 6.84 µM | 11% |  | 
[2H]C1([2H])c2ncccc2C(=O)N1Cc1c(F)cc(-c2ccc(C(C)(C)O)c3nn(C([2H])([2H])[2H])cc23)cc1C1CC1 (single isomer, unassigned) [Compound 147, 6-(2-cyclopropyl-6-fluoro-4-(7-(2-hydroxypropan-2-yl)-2-(methyl-d3)-2H-indazol-4-yl)benzyl)-6,7-dihydro-5H-pyrrolo[3,4-b]pyridin-5-one-7,7-d2] | 62% | 0.074 µM | 6.19 µM | 43% |  | 
Cc1cc(-c2cn(C)nc2C(C)(C)O)ccc1CN1Cc2ncccc2C1=O [Compound 31, 6-(4-(3-(2-hydroxypropan-2-yl)-1-methyl-1H-pyrazol-4-yl)-2-methylbenzyl)-6,7-dihydro-5H-pyrrolo[3,4-b]pyridin-5-one] | 47% | ≥ 10 µM |  |  | inactive | 
[2H]C1([2H])c2ncccc2C(=O)N1Cc1c(F)cc(-c2ccc(C(C)(C)O)c3nn(C)cc23)cc1C1CCCC1 [Compound 152, 6-(2-cyclopentyl-6-fluoro-4-(7-(2-hydroxypropan-2-yl)-2-methyl-2H-indazol-4-yl)benzyl)-6,7-dihydro-5H-pyrrolo[3,4-b]pyridin-5-one-7,7-d2] | 74% | 3.36 µM |  |  | inactive | 
Cc1cc(-c2cn(C)nc2C(C)(C)O)cc(F)c1CN1Cc2ncccc2C1=O [Compound 30, 6-(2-fluoro-4-(3-(2-hydroxypropan-2-yl)-1-methyl-1H-pyrazol-4-yl)-6-methylbenzyl)-6,7-dihydro-5H-pyrrolo[3,4-b]pyridin-5-one] | 51% | ≥ 10 µM |  |  | inactive | 
CC(C)(O)c1ccc(-c2cc(F)c(CN3Cc4ncccc4C3=O)c(F)c2)cc1Cl [Compound 8, 6-((3′-chloro-3,5-difluoro-4′-(2-hydroxypropan-2-yl)-[1,1′-biphenyl]-4-yl)methyl)-6,7-dihydro-5H-pyrrolo[3,4-b]pyridin-5-one] | 69% | 1.98 µM |  |  | inactive | 
